Experimental data published in ChEMBL document CHEMBL3046330, “Synthesis and biological activity of hydrazidehydrazones and their corresponding 3-acetyl-2,5-disubstituted-2,3-dihydro-1,3,4-oxadiazoles” (Med Chem Res, 2012).
≈ marks a conversion by molar mass, not a printed value. Calls of active or inactive are those of the source. The calls are words filed in the database; no cut-off is given here.

How the values were obtained:
[1] = tested on: Colletotrichum acutatum; test: Antifungal activity against Colletotrichum acutatum assessed as growth inhibition at 30 uM after 72 hr by broth microdilution method; assay type: functional; details: read-out: GI
[2] = tested on: RAW264.7; test: Cytotoxicity against Mus musculus (mouse) RAW264.7 cells up to 25 ug/ml; assay type: cell-based
[3] = biological target: T1, Nitric oxide synthase, inducible (Mus musculus) (UniProt P29477); test: Inhibition of iNOS in Mus musculus (mouse) RAW264.7 cells assessed as inhibition of LPS-induced nitrite production up to 25 ug/ml incubated for 30 min prior to LPS challenge measured after 24 hr by Griess assay relative to vehicle-treated control; assay type: cell-based
T1 sequence (whole entry): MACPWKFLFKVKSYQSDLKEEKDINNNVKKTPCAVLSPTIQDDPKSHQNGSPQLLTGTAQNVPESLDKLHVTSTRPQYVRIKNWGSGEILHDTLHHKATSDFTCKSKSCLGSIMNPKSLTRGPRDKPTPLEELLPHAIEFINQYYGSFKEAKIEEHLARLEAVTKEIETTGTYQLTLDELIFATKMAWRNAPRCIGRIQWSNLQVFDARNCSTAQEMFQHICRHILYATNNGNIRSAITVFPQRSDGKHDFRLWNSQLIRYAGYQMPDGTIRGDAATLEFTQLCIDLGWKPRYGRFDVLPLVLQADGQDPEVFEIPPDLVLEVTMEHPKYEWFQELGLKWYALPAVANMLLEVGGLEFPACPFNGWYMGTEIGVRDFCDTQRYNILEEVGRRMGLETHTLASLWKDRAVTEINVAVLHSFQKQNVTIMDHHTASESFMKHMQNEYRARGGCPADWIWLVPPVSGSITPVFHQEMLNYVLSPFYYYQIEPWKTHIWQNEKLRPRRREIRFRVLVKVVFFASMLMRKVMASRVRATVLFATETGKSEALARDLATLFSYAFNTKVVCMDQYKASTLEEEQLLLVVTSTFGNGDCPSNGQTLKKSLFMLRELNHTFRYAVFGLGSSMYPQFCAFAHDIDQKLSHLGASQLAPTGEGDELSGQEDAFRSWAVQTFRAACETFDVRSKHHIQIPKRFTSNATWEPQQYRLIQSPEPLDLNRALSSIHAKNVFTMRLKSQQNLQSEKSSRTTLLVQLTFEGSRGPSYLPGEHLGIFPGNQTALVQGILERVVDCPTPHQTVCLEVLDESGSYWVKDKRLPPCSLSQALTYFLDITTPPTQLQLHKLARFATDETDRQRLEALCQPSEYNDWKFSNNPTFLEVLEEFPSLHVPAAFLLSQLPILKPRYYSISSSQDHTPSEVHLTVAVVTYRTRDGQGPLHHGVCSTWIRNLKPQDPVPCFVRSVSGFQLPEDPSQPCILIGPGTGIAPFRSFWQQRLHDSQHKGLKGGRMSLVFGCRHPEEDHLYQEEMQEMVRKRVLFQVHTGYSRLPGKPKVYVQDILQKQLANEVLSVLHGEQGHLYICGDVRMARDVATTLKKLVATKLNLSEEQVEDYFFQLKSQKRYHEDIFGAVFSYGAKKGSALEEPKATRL

[4] = tested on: Candida albicans; test: Antifungal activity against Candida albicans NRRL Y-12983 after 24 hr by NCCLS broth microdilution method; assay type: functional; details: NRRL Y-12983, 24 h
[5] = tested on: Candida albicans; test: Antifungal activity against Candida albicans clinical isolate after 24 hr by NCCLS broth microdilution method; assay type: functional
[6] = tested on: Colletotrichum gloeosporioides; test: Antifungal activity against Colletotrichum gloeosporioides assessed as growth inhibition at 30 uM after 72 hr by broth microdilution method; assay type: functional; details: read-out: GI
[7] = tested on: Nakaseomyces glabratus; test: Antifungal activity against Candida glabrata clinical isolate after 24 hr by NCCLS broth microdilution method; assay type: functional
[8] = tested on: Candida tropicalis; test: Antifungal activity against Candida tropicalis NRRL Y-12968 at 2000 ug/ml by agar diffusion method; assay type: functional; details: read-out: IZ
[9] = tested on: SK-MEL; test: Cytotoxicity against Homo sapiens (human) SK-MEL cells assessed as cell viability up to 25 ug/ml after 48 hr by neutral red assay; assay type: functional, cell-based
[10] = tested on: HL-60; test: Antioxidant activity in PMA-stimulated Homo sapiens (human) HL60 cells assessed as inhibition of intracellular ROS generation up to 25 ug/ml incubated for 30 min prior to PMA stimulation measured after 30 min by DCFH-DA assay relative to vehicle-treated control; assay type: functional, cell-based
[11] = tested on: Cyberlindnera jadinii; test: Antifungal activity against Cyberlindnera jadinii NRRL Y-900 after 24 hr by NCCLS broth microdilution method; assay type: functional; details: Williopsis jadinii, NRRL Y-900, 24 h
[12] = tested on: Botrytis cinerea; test: Antifungal activity against Botryotinia fuckeliana at 0.3 to 30 uM after 48 to 72 hr by broth microdilution method; assay type: functional, organism-based
[13] = tested on: Phomopsis obscurans; test: Antifungal activity against Phomopsis obscurans assessed as growth inhibition at 30 uM after 144 hr by broth microdilution method; assay type: functional; details: Paraphomopsis obscurans, read-out: GI
[14] = biological target: Transcription factor Sp1 (Homo sapiens, UniProt P08047); test: Inhibition of Sp1 (unknown origin) up to 25 ug/ml by luciferase reporter gene assay
[15] = tested on: SW1353; test: Inhibition of PMA-induced NFkappaB activity in Homo sapiens (human) SW1353 cells up to 25 ug/ml incubated for 30 min followed by PMA induction for 8 hr by luciferase reporter gene assay; assay type: cell-based
[16] = tested on: Fusarium oxysporum; test: Antifungal activity against Fusarium oxysporum assessed as growth inhibition at 30 uM after 72 hr by broth microdilution method; assay type: functional; details: read-out: GI
[17] = tested on: Candida parapsilosis; test: Antifungal activity against Candida parapsilosis NRRL Y-12696 after 24 hr by NCCLS broth microdilution method; assay type: functional; details: Lodderomyces parapsilosis, NRRL Y-12696, 24 h
[18] = tested on: BT-549; test: Cytotoxicity against Homo sapiens (human) BT549 cells assessed as cell viability up to 25 ug/ml after 48 hr by neutral red assay; assay type: functional, cell-based
[19] = tested on: Candida tropicalis; test: Antifungal activity against Candida tropicalis NRRL Y-12968 after 24 hr by NCCLS broth microdilution method; assay type: functional; details: NRRL Y-12968, 24 h
[20] = tested on: Candida albicans; test: Antifungal activity against Candida albicans clinical isolate at 2000 ug/ml by agar diffusion method; assay type: functional; details: read-out: IZ
[21] = tested on: SK-OV-3; test: Cytotoxicity against Homo sapiens (human) SKOV3 cells assessed as cell viability up to 25 ug/ml after 48 hr by neutral red assay; assay type: functional, cell-based
[22] = Cytotoxicity against Sus scrofa (pig) LLC-PK11 cells assessed as cell viability up to 25 ug/ml after 48 hr by neutral red assay; assay type: cell-based; details: llc-pk11, 48 h
[23] = tested on: Candida albicans; test: Antifungal activity against Candida albicans ATCC 90028 after 24 hr by NCCLS broth microdilution method; assay type: functional; details: ATCC 90028, 24 h
[24] = tested on: Vero; test: Cytotoxicity against Chlorocebus aethiops (African green monkey) Vero cells assessed as cell viability up to 25 ug/ml after 48 hr by neutral red assay; assay type: cell-based; details: chlorocebus sabaeus
[25] = tested on: HL-60; test: Cytotoxicity against Homo sapiens (human) HL60 cells; assay type: cell-based
[26] = tested on: Colletotrichum fragariae; test: Antifungal activity against Colletotrichum fragariae at 0.3 to 30 uM after 48 to 72 hr by broth microdilution method; assay type: functional, organism-based
[27] = tested on: KB; test: Cytotoxicity against Homo sapiens (human) KB cells assessed as cell viability up to 25 ug/ml after 48 hr by neutral red assay; assay type: functional, cell-based
[28] = tested on: Pichia kudriavzevii; test: Antifungal activity against Pichia kudriavzevii NRRL Y-7179 after 24 hr by NCCLS broth microdilution method; assay type: functional; details: NRRL Y-7179, 24 h

Sequence of Transcription factor Sp1 (P08047 whole entry): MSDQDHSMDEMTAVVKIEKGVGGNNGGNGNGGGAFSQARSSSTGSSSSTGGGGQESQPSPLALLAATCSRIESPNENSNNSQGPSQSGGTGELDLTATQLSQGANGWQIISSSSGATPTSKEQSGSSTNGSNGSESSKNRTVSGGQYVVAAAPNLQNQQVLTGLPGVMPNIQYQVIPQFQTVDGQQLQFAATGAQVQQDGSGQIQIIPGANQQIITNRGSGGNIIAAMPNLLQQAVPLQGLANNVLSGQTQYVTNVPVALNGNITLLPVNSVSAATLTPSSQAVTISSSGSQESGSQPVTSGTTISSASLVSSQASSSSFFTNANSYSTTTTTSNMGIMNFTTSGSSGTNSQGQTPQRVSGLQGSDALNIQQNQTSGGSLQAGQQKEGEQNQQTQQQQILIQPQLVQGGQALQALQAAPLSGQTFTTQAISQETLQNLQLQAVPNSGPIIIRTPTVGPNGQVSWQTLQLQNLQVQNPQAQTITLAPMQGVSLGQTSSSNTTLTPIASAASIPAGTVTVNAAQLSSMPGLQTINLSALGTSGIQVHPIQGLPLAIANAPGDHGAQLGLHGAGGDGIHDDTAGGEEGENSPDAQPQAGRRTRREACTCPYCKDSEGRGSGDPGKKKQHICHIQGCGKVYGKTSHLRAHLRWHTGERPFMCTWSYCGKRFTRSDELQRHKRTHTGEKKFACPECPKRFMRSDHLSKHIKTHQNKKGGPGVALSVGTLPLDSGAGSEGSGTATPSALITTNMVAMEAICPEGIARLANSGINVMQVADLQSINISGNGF

inhibition [3]: inactive | MIC [4]: > 1000 µg/mL | MIC [5]: > 1000 µg/mL | MIC [7]: > 1000 µg/mL | MIC [11]: > 1000 µg/mL | inhibition (INH) [14]: Not Active | MIC [17]: > 1000 µg/mL | MIC [19]: > 1000 µg/mL | MIC [23]: > 1000 µg/mL | MIC [28]: > 1000 µg/mL
SMILES: CC(=O)N1N=C(c2ccc(F)cc2)OC1c1ccc(Br)s1 (stereo not drawn)
inhibition of growth at 30 µM [1]: 49% | Activity [2]: Non-toxic | inhibition of growth at 30 µM [6]: 66% | zone of inhibition at 2000 µg/mL [8]: 9 mm | Activity [9]: inactive | inhibition [10]: inactive | Activity [12]: inactive | inhibition of growth at 30 µM [13]: 65% | inhibition [15]: inactive | inhibition of growth at 30 µM [16]: 67% | Activity [18]: inactive | zone of inhibition at 2000 µg/mL [20]: 9 mm | Activity [21]: inactive | Activity [22]: Not Active | Activity [24]: Not Active | IC50 [25]: 5.9 µg/mL (≈ 16 µM) | Activity [26]: inactive | Activity [27]: inactive
